In patent US7045532B2 (Millennium Pharmaceuticals, Inc., priority 1999, dated 2006):
pKi: −log10 of the molar value. Like-named read-outs stand apart in the source and are kept apart here.

Columns and labels:
Carboxypeptidase A = biological target: T1, Carboxypeptidase A (Bos taurus, UniProt P00730); experiment: Carboxypeptidase A activity assay; format: biochemical; details: Ki class; compounds tested in 5% DMSO, 12 compound concentrations
T1 sequence (P00730 111-419): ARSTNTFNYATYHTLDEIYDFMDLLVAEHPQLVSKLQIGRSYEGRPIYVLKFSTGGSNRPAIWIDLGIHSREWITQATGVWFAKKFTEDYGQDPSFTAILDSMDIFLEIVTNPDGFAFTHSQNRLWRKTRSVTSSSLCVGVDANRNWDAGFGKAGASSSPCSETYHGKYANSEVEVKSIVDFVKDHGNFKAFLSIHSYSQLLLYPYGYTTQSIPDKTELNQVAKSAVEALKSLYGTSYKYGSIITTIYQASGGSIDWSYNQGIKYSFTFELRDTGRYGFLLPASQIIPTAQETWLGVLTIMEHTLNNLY
Procedure, shortened: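 Ki obtained by correcting apparent Ki for substrate, Ki=Kiapp/(1+[S]/Km), from 12-concentration series. Enzyme activity read by absorbance at 328 nm with 5% DMSO present, EDTA stop.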

ACE-2 = biological target: T2, ACE-2 (Homo sapiens, UniProt Q9BYF1); experiment: ACE-2 Competitive Substrate Assay (ACS Assay); format: biochemical
T2 construct: a stop codon inserted after the serine immediately preceding the transmembrane domain; made in house; host or cells: CHO K1 cells (transient transfection, purified from conditioned medium)
T2 sequence (Q9BYF1 18-740 limits assumed): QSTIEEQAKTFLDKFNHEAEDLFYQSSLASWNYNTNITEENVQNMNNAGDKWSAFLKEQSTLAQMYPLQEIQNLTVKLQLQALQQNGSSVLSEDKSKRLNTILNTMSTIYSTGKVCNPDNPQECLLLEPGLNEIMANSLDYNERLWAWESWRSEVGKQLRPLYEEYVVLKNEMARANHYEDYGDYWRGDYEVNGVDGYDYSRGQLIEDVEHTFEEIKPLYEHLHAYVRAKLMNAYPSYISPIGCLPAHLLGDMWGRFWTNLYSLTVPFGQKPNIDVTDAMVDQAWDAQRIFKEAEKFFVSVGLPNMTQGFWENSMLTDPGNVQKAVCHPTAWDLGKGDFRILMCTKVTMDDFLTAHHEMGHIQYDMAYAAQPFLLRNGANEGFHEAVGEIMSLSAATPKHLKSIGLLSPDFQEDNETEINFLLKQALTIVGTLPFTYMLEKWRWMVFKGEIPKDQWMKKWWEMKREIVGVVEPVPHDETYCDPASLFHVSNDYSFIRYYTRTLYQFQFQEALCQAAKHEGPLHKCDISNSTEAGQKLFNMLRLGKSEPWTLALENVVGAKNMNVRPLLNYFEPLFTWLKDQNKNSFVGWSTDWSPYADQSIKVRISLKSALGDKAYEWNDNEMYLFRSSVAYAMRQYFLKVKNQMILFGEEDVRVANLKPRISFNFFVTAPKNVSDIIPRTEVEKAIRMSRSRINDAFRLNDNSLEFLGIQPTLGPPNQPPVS

[1] = 34-day oral dosing in BBZDR rats (obesity and Type II diabetes model): body weight and metabolic parameters; format: in vivo; details: for Adipose Mass / Adipose Mass, percent of placebo response / Core Temperature / Core Temperature, percent of placebo response / Food Consumption / Food Consumption, percent of placebo response / Incidence of Glycosuria (Days) / Incidence of Glycosuria (Days), incidence rate / Psoas Mass / Psoas Mass, percent of placebo response / Water Consumption / Water Consumption, percent of placebo response / Incidence of Diabetes: 34 days; for Incidence of Diabetes: animals
Description: The effects of Compound HE on body weight and metabolism were studied further in the BBZDR rat, a genetic model of obesity and Type II diabetes (Biomedical Research Models, Inc, Worcester, Mass.). BBZDR rats are a cross between the BBDR/W or strain and the fa/fa rat. In BBZDR rats, diabetes occurs in 98% of obese males at an average age of onset of 68±2 days. […] The pancreatic islets of the young obese diabetic males are profoundly enlarged with β cell hyperplasia and mild fibrosis. Studies of pancreatic sections immunostained for insulin and the GLUT-2 glucose transporter reveal focal reduction in β cell insulin content and a generalized reduction in GLUT-2 staining of β cell surface membranes. Lymphocytic insulitis is not detected in either lean or obese rats. In the absence of lymphopenia and autoimmunity, the lean BBZDR rats never become diabetic, and their pancreatic islets are normal in all respects.
Compound HE was administered to male BBZDR rats (48–60 days of age) via oral gavage for a period of 34 days. There were three treatment groups, each with 6 rats/group: a) placebo (1% carboxy methyl cellulose [CMC]), b) Compound HE at 100 mg/kg/day in 1% CMC, and c) Compound HE at 300 mg/kg/day in 1% CMC. The rats were gavaged twice daily for the entire period of the study. Body weight, food intake, fluid intake, and core body temperature were monitored on a daily basis. In addition, the rats were observed twice daily for any gross behavioral/phenotypic changes. Early in the study, two animals in the 300 mg/kg/day-dose group died from trauma secondary to oral gavage (confirmed during necropsy) and were excluded from all analyses.
On Day 21, after an overnight fast, whole blood, serum and plasma samples were collected from anesthetized animals. Prior to the termination of the study, tissue and plasma samples were collected from overnight-fasted animals for histological and biochemical analyses.

Question: Which results are given for `CC(C)CC(N[C@@H](Cc1cncn1Cc1cc(Cl)cc(Cl)c1)C(=O)O)C(=O)O` (single isomer, unassigned) [HE, 2-[1-Carboxy-2-[3-(3,5-dichloro-benzyl)-3H-imidazol-4-yl]-ethylamino)4-methyl-pentanoic acid]?
Answer: pKi (Carboxypeptidase A): 4.30 to 5.00; pKi (ACE-2; Ki class, compounds tested in 5% DMSO, 12 compound concentrations, Ki=Kiapp/(1+[S]/Km), read-out: Human ACE-2 Activity): > 7.00; pKi (ACE-2; Table 3, very good ACE-2 inhibiting compounds, species not given, read-out: ACE-2 Activity, Ki): > 7.30; fluid intake, less than placebo ([1]; 100 mg-treated group): 5%; food intake, less than placebo ([1]; 100 mg-treated group): 5%; Fasted Glucose, Day 34, percent of placebo response ([1]; 100 mg/kg/day oral gavage): (100%); Fasted Insulin, Day 34 ([1]; 100 mg/kg/day oral gavage): 8.4 ± 7.0 ng/mL; Fasted Insulin, Day 34, percent of placebo response ([1]; 100 mg/kg/day oral gavage): (62%)^a; Fasted Leptin, Day 34 ([1]; 100 mg/kg/day oral gavage): 99 ± 22 ng/mL; Fasted Leptin, Day 34, percent of placebo response ([1]; 100 mg/kg/day oral gavage): (102.7%); Fasted Total Cholest., Day 34 ([1]; 100 mg/kg/day oral gavage): 117 ± 9 mg/dL; Fasted Total Cholest., Day 34, percent of placebo response ([1]; 100 mg/kg/day oral gavage): (88%); Total Fasted Triglyc., Day 34 ([1]; 100 mg/kg/day oral gavage): 409 ± 6 mg/dL; Total Fasted Triglyc., Day 34, percent of placebo response ([1]; 100 mg/kg/day oral gavage): (82%); Weight Gain thru Day 34 ([1]; 100 mg/kg/day oral gavage): 123 ± 3.4 g; Weight Gain thru Day 34, percent of placebo response ([1]; 100 mg/kg/day oral gavage): (83.9%); Adipose Mass ([1]; 100 mg/kg/day oral gavage): 48.03 ± 1.86 g; Adipose Mass, percent of placebo response ([1]; 100 mg/kg/day oral gavage): (94%); Core Temperature ([1]; 100 mg/kg/day oral gavage): 98.4 ± 0.13 F.; Core Temperature, percent of placebo response ([1]; 100 mg/kg/day oral gavage): (100%); Food Consumption ([1]; 100 mg/kg/day oral gavage): 1283 ± 50.3 g; Food Consumption, percent of placebo response ([1]; 100 mg/kg/day oral gavage): (94.4%); Incidence of Glycosuria (Days) ([1]; 100 mg/kg/day oral gavage): 31/198; Incidence of Glycosuria (Days), incidence rate ([1]; 100 mg/kg/day oral gavage): (15.7%); Psoas Mass ([1]; 100 mg/kg/day oral gavage): 1.30 ± 0.09 g; Psoas Mass, percent of placebo response ([1]; 100 mg/kg/day oral gavage): (113%); Water Consumption ([1]; 100 mg/kg/day oral gavage): 1388 ± 73.5 mL; Water Consumption, percent of placebo response ([1]; 100 mg/kg/day oral gavage): (94.6%); Incidence of Diabetes ([1]; 100 mg/kg/day oral gavage): 2/6; fluid intake, less than placebo ([1]; 300 mg-treated group): 15%; food intake, less than placebo ([1]; 300 mg-treated group): 8%; Fasted Glucose, Day 34, percent of placebo response ([1]; 300 mg/kg/day oral gavage): (94%); Fasted Insulin, Day 34 ([1]; 300 mg/kg/day oral gavage): 7.7 ± 4.1 ng/mL; Fasted Insulin, Day 34, percent of placebo response ([1]; 300 mg/kg/day oral gavage): (57%)^a; Fasted Leptin, Day 34 ([1]; 300 mg/kg/day oral gavage): 92 ± 5.3 ng/mL; Fasted Leptin, Day 34, percent of placebo response ([1]; 300 mg/kg/day oral gavage): (76%); Fasted Total Cholest., Day 34 ([1]; 300 mg/kg/day oral gavage): 104 ± 5 mg/dL; Fasted Total Cholest., Day 34, percent of placebo response ([1]; 300 mg/kg/day oral gavage): (78%); Total Fasted Triglyc., Day 34 ([1]; 300 mg/kg/day oral gavage): 414 ± 23 mg/dL; Total Fasted Triglyc., Day 34, percent of placebo response ([1]; 300 mg/kg/day oral gavage): (82%); Weight Gain thru Day 34 ([1]; 300 mg/kg/day oral gavage): 125 ± 8.3 g; Weight Gain thru Day 34, percent of placebo response ([1]; 300 mg/kg/day oral gavage): (82.5%); Adipose Mass ([1]; 300 mg/kg/day oral gavage): 48.43 ± 0.55 g; Adipose Mass, percent of placebo response ([1]; 300 mg/kg/day oral gavage): (94%); Core Temperature ([1]; 300 mg/kg/day oral gavage): 98.4 ± 0.20 F.; Core Temperature, percent of placebo response ([1]; 300 mg/kg/day oral gavage): (100%); Food Consumption ([1]; 300 mg/kg/day oral gavage): 1249 ± 26.8 g; Food Consumption, percent of placebo response ([1]; 300 mg/kg/day oral gavage): (91.9%); Incidence of Glycosuria (Days) ([1]; 300 mg/kg/day oral gavage): 12/162; Incidence of Glycosuria (Days), incidence rate ([1]; 300 mg/kg/day oral gavage): (7.4%); Psoas Mass ([1]; 300 mg/kg/day oral gavage): 1.21 ± 0.10 g; Psoas Mass, percent of placebo response ([1]; 300 mg/kg/day oral gavage): (105%); Water Consumption ([1]; 300 mg/kg/day oral gavage): 1271 ± 101.7 mL; Water Consumption, percent of placebo response ([1]; 300 mg/kg/day oral gavage): (86.7%); Incidence of Diabetes ([1]; 300 mg/kg/day oral gavage): 1/4; gross or histomorphological adverse effects ([1]; 34 consecutive days of oral dosing): No gross or histomorphological adverse effects; gross abdominal adipose and psoas muscle mass and core body temperature, change between groups ([1]; all three groups): no changes; plasma levels of insulin, total cholesterol and triglycerides compared to placebo ([1]; both dose groups): lower; body weight gain over the 34 days, less than placebo ([1]; both dose groups (100 and 300 mg/kg/day)): approximately 18%; statistical significance of the changes versus placebo ([1]; oral administration for 34 days): not statistically significant
